From paper PMC6152703, “Evaluation of the Antidiabetic Activity and Chemical Composition of Geranium collinum Root Extracts—Computational and Experimental Investigations” (Molecules : A Journal of Synthetic Chemistry and Natural …, 2017)
Read-outs that look alike come from different tables or passages of the source. One block for each compound: values may come before it.

Columns and labels:
α-glucosidase = α-glucosidase (Saccharomyces cerevisiae, UniProt P53341); format: biochemical
Procedure: (§1) The antidiabetic effect of gallic acid was evaluated in vitro on inhibitory enzymes (α-glucosidase and α-amylase). Antidiabetic activity was determined using PTP-1B inhibition and α-glucosidase procedures. PTP-1B is a negative regulator of the insulin signaling pathway. All extracts of G. collinum were obtained after a period of extraction of 2 h. […] It is well known that polyphenols can provide health benefits to humans attributed to their strong radical-scavenging and antioxidant effects.
α-Glucosidase inhibitory activities were evaluated according to the chromogenic method described by.

PTP-1B = molecular target: T1, PTP-1B (Homo sapiens, UniProt P18031); test: PTP-1B enzyme inhibition assay; format: biochemical; conditions: in vitro enzyme inhibition; for IC50: read-out: Antidiabetic Activity (PTP-1B) IC50 Values (converted)
T1 sequence (P18031 1-435): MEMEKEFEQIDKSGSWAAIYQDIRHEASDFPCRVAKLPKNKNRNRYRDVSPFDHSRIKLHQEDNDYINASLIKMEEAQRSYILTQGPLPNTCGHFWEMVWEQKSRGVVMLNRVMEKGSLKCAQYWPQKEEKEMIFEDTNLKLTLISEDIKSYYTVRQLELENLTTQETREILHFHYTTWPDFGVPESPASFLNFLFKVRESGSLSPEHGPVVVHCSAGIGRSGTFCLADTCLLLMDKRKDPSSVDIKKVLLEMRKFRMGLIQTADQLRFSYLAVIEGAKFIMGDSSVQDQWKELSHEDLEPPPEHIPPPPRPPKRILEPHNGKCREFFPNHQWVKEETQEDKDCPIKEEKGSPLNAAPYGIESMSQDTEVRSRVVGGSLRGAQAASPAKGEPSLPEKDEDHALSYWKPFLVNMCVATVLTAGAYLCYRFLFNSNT
Procedure: as §1

[1] = DPPH scavenging assay (antioxidant activity); conditions: 30 min, 517 nm
Procedure: The majority of the antioxidant activities (such as free radical scavenging) of herbal medicines, vegetables and fruits may be due to their phenolic compounds. A lower IC50 value than the standard vitamin C implied a significant antioxidant activity of the tested samples.
Antioxidant activity was measured using the DPPH (1,1-diphenyl-2-picrylhydrazyl) scavenging assay procedure as published in the literature. The extracts were dissolved in DMSO in a concentration of 100 µg/mL. Different concentrations of each extract were prepared in DMSO. Sample solution in different concentrations was added at 2.5 mL in each well of the 96 micro well plate. Into each well was added 1 mL of 0.3 mM DPPH solution in ethanol to produce the test solutions. DMSO (1 mL) was added to produce the blank solutions. Negative control sample was prepared by mixing 1 mL of DPPH solution with 2.5 mL of DMSO. The solutions were kept in the dark at room temperature for 30 min. Absorbance was measured at the wavelength of 517 nm. Ascorbic acid (vitamin C) was used as the standard sample.

α-glucosidase, sequence (P53341 whole entry): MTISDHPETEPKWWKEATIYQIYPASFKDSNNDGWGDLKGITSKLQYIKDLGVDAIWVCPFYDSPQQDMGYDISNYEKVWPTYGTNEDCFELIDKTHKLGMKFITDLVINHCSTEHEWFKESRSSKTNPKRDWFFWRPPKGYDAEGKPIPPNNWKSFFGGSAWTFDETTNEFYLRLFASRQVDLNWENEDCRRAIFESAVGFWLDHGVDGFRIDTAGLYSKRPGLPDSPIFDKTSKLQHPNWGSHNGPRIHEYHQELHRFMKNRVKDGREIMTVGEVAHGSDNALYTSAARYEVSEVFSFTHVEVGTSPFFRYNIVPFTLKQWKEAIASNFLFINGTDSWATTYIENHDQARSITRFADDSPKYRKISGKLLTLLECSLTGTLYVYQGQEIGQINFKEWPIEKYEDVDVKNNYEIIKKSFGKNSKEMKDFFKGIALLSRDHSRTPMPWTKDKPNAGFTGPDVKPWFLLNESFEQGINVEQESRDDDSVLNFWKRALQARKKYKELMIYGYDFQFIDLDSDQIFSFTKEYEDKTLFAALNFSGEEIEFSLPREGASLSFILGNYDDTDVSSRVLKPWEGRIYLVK

SMILES: Oc1cc(O)c2c(c1)OC(c1ccc(O)c(O)c1)C(O)C2 (single isomer, unassigned; (+)) [Catechin, (+)-Catechin]
antidiabetic activities in the α-glucosidase inhibition assay (in words) (α-glucosidase): potent antidiabetic activities
IC50 (PTP-1B): 2.14 µM

SMILES: COc1cc2c(=O)oc3c(OC)c(OC)cc4c(=O)oc(c1OC)c2c34 [3,3′,4,4′-Tetra-O-methylellagic acid]
Antidiabetic Activity (α-Glucosidase) IC50 Values (α-glucosidase; in vitro enzyme inhibition): No effect
IC50 (PTP-1B): 60.4 µM

SMILES: COc1c(O)cc2c(=O)oc3c(OC)c(O)cc4c(=O)oc1c2c34 [3,3′-Di-O-methylellagic acid]
Antidiabetic Activity (α-Glucosidase) IC50 Values (α-glucosidase; in vitro enzyme inhibition): No effect
IC50 (PTP-1B): 19 µM

IC50 (PTP-1B): 199 µM
SMILES: O=C(O)/C=C/c1ccc(O)c(O)c1 [Caffeic acid]

SMILES: O=C(O[C@@H]1O[C@@H]2COC(=O)c3cc(O)c(O)c(O)c3-c3c(cc(O)c(O)c3O)C(=O)O[C@H]([C@H]1O)[C@@H]2O)c1cc(O)c(O)c(O)c1 [Corilagin, Corilagin (1-O-galloyl-3,6-O-hexahydroxydiphenoyl-β-D-glucose)]
antidiabetic activities in the α-glucosidase inhibition assay (in words) (α-glucosidase; in vitro enzyme inhibition): potent antidiabetic activities
IC50 (PTP-1B): 1.37 µM

Antidiabetic Activity (PTP-1B) IC50 Values (PTP-1B): No effect
SMILES: CC[C@H](CC[C@@H](C)[C@H]1CC[C@H]2[C@@H]3CC=C4C[C@@H](O[C@@H]5O[C@H](CO)[C@@H](O)[C@H](O)[C@H]5O)CC[C@]4(C)[C@H]3CC[C@]12C)C(C)C [Daucosterol, β-Sitosterol-3-O-β-D-glucopyranoside]

SMILES: Oc1cc(O)c2c(c1)O[C@H](c1ccc(O)c(O)c1)[C@H](O)C2 [Epicatechin, (–)-Epicatechin]
antidiabetic activities in the α-glucosidase inhibition assay (in words) (α-glucosidase): potent antidiabetic activities
IC50 (PTP-1B): 0.792 µM

SMILES: Oc1cc(O)c2c(c1)O[C@H](c1cc(O)c(O)c(O)c1)[C@H](O)C2 [Epigallocatechin, (–)-Epigallocatechin (3,3′,4,5,5′,7-flavanhexol)]
Antidiabetic Activity (PTP-1B) IC50 Values (PTP-1B): No effect

SMILES: O=C(O)c1cc(O)c(O)c(O)c1 [Gallic acid]
Antidiabetic Activity (PTP-1B) IC50 Values (PTP-1B): No effect

SMILES: O=c1c(O)c(-c2ccc(O)c(O)c2)oc2cc(O)cc(O)c12 [Quercetin]
antidiabetic activities in the α-glucosidase inhibition assay (in words) (α-glucosidase; in vitro enzyme inhibition): potent antidiabetic activities

Antioxidant Activity IC50 Values [1]: 5.34 ± 0.42 µg/mL
SMILES: O=C1O[C@H]([C@@H](O)CO)C(O)=C1O [Vitamin C, Ascorbic acid]
